Measured values: patent US8663701B2, “Compositions containing ultra-micronized palmitoyl-ethanolamide” (priority 2009, dated 2014)

Assays:
[1] = tested on: TNF-alpha, tissue mast cells; assay: DNBS-induced chronic intestinal inflammation; assay type: in vivo, mouse; settings: 96 hours after DNBS
Experimental: (§1) An acute inflammation was induced in the animal by means of intra-peritoneal injection of LPS (lipopolysaccharide): the animals were sacrificed after 18 hours from the LPS administration. Instead, a chronic inflammation at the colon level was induced by administering the animal with DNBS (2,4-Dinitrobenzene sulfonic acid): in this case, the animals were sacrificed after 96 hours from the DNBS administration.
(§2) The level of TNF-alpha and the percent variation in the number of mast cells were assessed on intestinal tissue.

[2] = tested on: neuropathic pain at the lower limbs; assay: Neuropathic pain in Multiple Sclerosis patients, VAS scale; assay type: in vivo; settings: for VAS after the treatment of 60 days (average value): tablets
Experimental: The pain intensity was measured with a VAS (Visual Analogue Scale) scale both before and at the end of the treatment with palmitoylethanolamide.

[3] = tested on: TNF-alpha, NGF, NF-kB, IL-1 alpha; assay: Sciatic nerve ligation (CCI), spinal parameters at day 10; assay type: in vivo, mouse; settings: for IL-1alpha / NGF / TNF-alpha: spinal area, day 10 after ligation (CCI), per os once per day
Source text: After sciatic nerve ligation—CCI (carried out as described by Costa et al., Pain 2008; 139:541-550), a series of altered spinal parameters have been assessed in the mouse, following peripheral damage, and related to the activation of microglial cells induced by the peripheral chronic distress. In particular, TNF-alpha, NGF, NF-kB according to the method described by Costa et al. (see supra), and IL-1 alpha according to the method described by Fiorentino et al., 2008; 58(10):3100-3109 have been measured.
A 0.5% solution in carboxymethyl cellulose has been used as a vehicle.
The measurements of the parameters indicated, above have been carried out at day 10 from the sciatic nerve ligation, after sacrifice of the test animal and sampling of the spinal area.

[4] = tested on: cutaneous reaction induced by Ascaris suum; assay: Cutaneous reaction induced by Asc S1 antigen in dogs sensitized to Ascaris suum; assay type: in vivo, Beagle dog; settings: for Inhibition on the cutaneous reaction induced by Ascaris suum: 10 mg/Kg oral; for Inhibition of the cutaneous reaction: between 1 and 4 hours after treatment
Experimental: Beagle dog spontaneously sensitized to Ascaris suum were used.
A 2% solution of Evans Blue in saline was administered endovenously (0.4 mL/Kg) 30 minutes before the intradermal injection of Asc S1 antigen, so as to be able to visualize the dermal reaction area.
The dermal reaction area was measured 10 minutes after the injection of Asc S1 antigen.

[5] = Concentration of PEA in serum after single oral administration; assay type: in vivo, Beagle dogs; settings: 15 mg/Kg oral, fasting
[6] = tested on: protein NGF, protein TNF-alpha; assay: Carrageenan-induced granuloma; assay type: in vivo, rat; settings: for Expression of protein NGF in the dorsal root ganglia / Expression of protein NGF in the granulomatous tissue / Expression of protein TNF-alpha in the dorsal root ganglia: 96 hours, 10 mg/Kg oral every 12 hours for 3 days
Experimental: The pharmacological model of granuloma induced, in the rat, by the introduction in the subcutaneous tissue of carrageenan-soaked sponge has been used. The model is described in De Filippis et al., J Cell Mol Med. 2009; 13(6):1086-1095.
The administrations were carried out at time 0 (immediately before the introduction of the sponges), and every 12 hours for 3 consecutive days. The unit doses administered were 10 mg/Kg.
The biochemical parameters relative to pro-algogenic mediators were detected, after sacrifice of the animal occurred after 96 hours from the introduction of the sponges, both in the granulomatous tissue (expression of the protein NGF), and at the level of the dorsal root ganglia (RDG) (expression of the protein TNF-alpha and the protein NGF).

[7] = tested on: TNF-alpha, tissue mast cells; assay: LPS-induced acute intestinal inflammation; assay type: in vivo, mouse; settings: 18 hours after LPS
Experimental: as §1, §2

[8] = tested on: IL-1 beta, NO2; assay: Beta-amyloid-induced neuroinflammation; assay type: in vivo, C57BL/6 mice; settings: for Effect on the levels of the biological parameters considered: IL-1 beta and NO2 in hippocampus; for Hippocampal levels of NO2 / Hippocampal tissue levels of IL-1 beta (with immunofluorescence method) (count of cells immunopositive to THE-1 beta): per os daily for 8 days after beta-amyloid inoculation
Experimental: C57BL/6 mice with age ranging between 3 and 5 months have been used, divided in 3 different groups (20 animals per group). […] The administrations were carried out daily for 8 days successive to the inoculation of the beta-amyloid. The third group was administered with the vehicle alone. After sacrifice of the animal, IL-1 beta and NO2 dose level was measured in the hippocampal homogenate via an immunofluorescence method.
The experimental method described by Esposito et al., Br J Pharmacol. 2007; 151:1272-1279 has been used.

[9] = tested on: 2-arachidonoylglycerol (2-AG); assay: Concentration of 2-AG in serum after single oral administration of PEA; assay type: in vivo, Beagle dogs; settings: for Concentration in serum, 2AG: 15 mg/Kg oral, fasting; for Increase of 2-AG in blood compared to the basal levels: administration per os
Source text: Dose measurements in blood have been carried out of 2-arachidonoyl-glycerol (2-AG), an endocannabinoid of great importance in the modulation of the activation of cells capable of expressing the cannabinoid CB2 receptor; this is the case of many cells belonging to the immune system as the microglia.

[10] = Modulated Differential Scanning Calorimetry (MDSC); assay type: physicochemical; settings: room temperature; from MDSC spectrum
Source text: The MDSC technique is a known one, the principles and applications of which are described, for example, in S. R. Rabel et al., Journal of Pharmaceutical and Biomedical Analysis, 21 (1999) 339-345. The tests described in the present patent application have been carried out with an equipment TA DSC Q200.
Such differential calorimetry measurement performed with the MDSC technique have shown an outstanding difference between the initial product and the ultra-micronized product, which difference consists in the appearance, in the product subjected to ultra-micronization, of a positive peak of exothermal transition at a temperature between 101° C. and 103° C., which is distinctive of structures with a high energy content; in the original product, such peak results, on the contrary, to be negative (see FIGS. 3 and 4). The positive exothermal transition peak has to be interpreted as the signal of the heat developed by the transformation of the higher energy content form (formed during the ultra-micronization process) into the native crystalline form with lower energy content.
The net energy transition which characterizes the positive peak at 101-103° C. of FIG. 4 is symptomatic of such stability. Differently, progressive transitions at lower temperatures should have to be noticed.

[11] = Particle size profile, laser particle size analyzer (LALLS); assay type: physicochemical; settings: ultra-micronization
Source text: In order to measure the particle size, a laser particle size analyzer (Malvern Mastersizer) with LALLS (Low Angle Laser Light Scattering) technique using the Fraunhofer theory of computation is employed.

[12] = vehicle 100, listed as Micronized PEA
[13] = Time 0 hours (before administration)
[14] = listed as micronized PEA, 10 mg/kg
[15] = Time 0 (immediately before administration)
[16] = vehicle 100, listed as Ultra-micronized PEA
[17] = listed as ultra-micronized PEA, 10 mg/kg

CCCCCCCCCCCCCCCC(=O)NCCO [Micronized palmitoylethanolamide, palmitoylethanolamide, reference compound]
Expression of protein TNF-alpha ([1]; listed as Micronized PEA): 134.8 ± 8.4 OD = mm^2
Tissue mast cell number, percent of vehicle [1, 12]: 74%
VAS after the treatment of 60 days (average value) ([2]; 600 mg per day for 60 days): 4.22
VAS before the treatment (average value) [2]: 6.52
IL-1alpha ([3]; listed as micronized PEA): 25.80 ± 2.0 pg/mg prot
NGF ([3]; listed as micronized PEA): 38.6 ± 3.0 pg/mg prot
TNF-alpha ([3]; listed as micronized PEA): 60.4 ± 3.0 pg/mg prot
Inhibition on the cutaneous reaction induced by Ascaris suum [4, 13]: 0%
Inhibition on the cutaneous reaction induced by Ascaris suum ([4]; Time 1 hours, 10 mg/kg): 9.4 ± 2.6%
Inhibition on the cutaneous reaction induced by Ascaris suum ([4]; Time 2 hours, 10 mg/kg): 9.3 ± 4.7%
Inhibition on the cutaneous reaction induced by Ascaris suum ([4]; Time 4 hours, 10 mg/kg): −2.6 ± 4.2%
Inhibition on the cutaneous reaction induced by Ascaris suum ([4]; Time 8 hours, 10 mg/kg): −0.8 ± 2.0%
Inhibition on the cutaneous reaction induced by Ascaris suum ([4]; Time 24 hours, 10 mg/kg): −0.2 ± 2.0%
Inhibition of the cutaneous reaction ([4]; listed as micronized PEA): almost null
concentration at 0 h ([5]; Beagle, dog, serum, po, 15 mg/kg, Time 0 (immediately before administration)): 0.0124 µM
concentration at 1 h ([5]; Beagle, dog, serum, po, 15 mg/kg, Time 1 h): 0.0222 µM
concentration at 2 h ([5]; Beagle, dog, serum, po, 15 mg/kg, Time 2 h): 0.0156 µM
concentration at 3 h ([5]; Beagle, dog, serum, po, 15 mg/kg, Time 3 h): 0.0134 µM
Expression of protein NGF in the dorsal root ganglia [6, 14]: 50.8 ± 3.0 OD = mm^2
Expression of protein NGF in the granulomatous tissue [6, 14]: 14.6 ± 2.1 OD = mm^2
Expression of protein TNF-alpha in the dorsal root ganglia [6, 14]: 151.1 ± 9.6 OD = mm^2
Expression of protein TNF-alpha ([7]; listed as Micronized PEA): 128.3 ± 10.8 OD = mm^2
Number of tissue mast cells, percent of vehicle [7, 12]: 86%
Effect on the levels of the biological parameters considered ([8]; listed as micronized PEA): only a marginal activity
Hippocampal levels of NO2 ([8]; listed as micronized PEA): 8.2 ± 2.1 μM/μg of proteins from hippocampal homogeneate
Hippocampal tissue levels of IL-1 beta (with immunofluorescence method) (count of cells immunopositive to THE-1 beta) ([8]; listed as micronized PEA): 86.3 ± 7.9
Concentration in serum, 2AG [9, 15]: 1.0 pmol/mL
Concentration in serum, 2AG ([9]; Time 1 h, 15 mg/kg): 1.2 pmol/mL
Concentration in serum, 2AG ([9]; Time 2 h, 15 mg/kg): 1.6 pmol/mL
Concentration in serum, 2AG ([9]; Time 3 h, 15 mg/kg): 1.7 pmol/mL
Increase of 2-AG in blood compared to the basal levels [9]: about 70%

CCCCCCCCCCCCCCCC(=O)NCCO [Ultra-micronized palmitoylethanolamide, palmitoylethanolamide]
Stability of the high energy crystalline form [10]: substantially stable at room temperature
Expression of protein TNF-alpha ([1]; listed as Ultra-micronized PEA): 62.9 ± 11.8 OD = mm^2
Tissue mast cell number, percent of vehicle [1, 16]: 26%
VAS after the treatment of 60 days (average value) ([2]; 600 mg per day for 60 days): 2.85
Effect on pain (VAS) ([2]; 600 mg per day for 60 days, Wilcoxon p=0.001): marked decrease of the pain
VAS before the treatment (average value) [2]: 6.52
Effect on all the biochemical parameters under investigation ([3]; CCI, day 10): substantial normalization
IL-1alpha ([3]; listed as ultra-micronized PEA): 2.50 ± 0.02 pg/mg prot
NGF ([3]; listed as ultra-micronized PEA): 10.2 ± 2.0 pg/mg prot
TNF-alpha ([3]; listed as ultra-micronized PEA): 44.1 ± 2.8 pg/mg prot
Inhibition on the cutaneous reaction induced by Ascaris suum [4, 13]: 0%
Inhibition on the cutaneous reaction induced by Ascaris suum ([4]; Time 1 hours, 10 mg/kg): 20.8 ± 5.4%
Inhibition on the cutaneous reaction induced by Ascaris suum ([4]; Time 2 hours, 10 mg/kg): 32.4 ± 4.7%
Inhibition on the cutaneous reaction induced by Ascaris suum ([4]; Time 4 hours, 10 mg/kg): 26.0 ± 4.9%
Inhibition on the cutaneous reaction induced by Ascaris suum ([4]; Time 8 hours, 10 mg/kg): 15.1 ± 9.6%
Inhibition on the cutaneous reaction induced by Ascaris suum ([4]; Time 24 hours, 10 mg/kg): 4.5 ± 6.7%
Inhibition of the cutaneous reaction ([4]; listed as ultra-micronized PEA): above 20%
Concentration in serum, PEA [5, 15]: 0.0124 µM
Concentration in serum, PEA ([5]; Time 1 h, 15 mg/kg): 0.0224 µM
Concentration in serum, PEA ([5]; Time 2 h, 15 mg/kg): 0.0162 µM
Concentration in serum, PEA ([5]; Time 3 h, 15 mg/kg): 0.0141 µM
Expression of protein NGF in the dorsal root ganglia [6]: 43.8 ± 3.1 OD = mm^2
Expression of protein NGF in the granulomatous tissue [6, 17]: 6.1 ± 1.6 OD = mm^2
Expression of protein TNF-alpha in the dorsal root ganglia [6, 17]: 96.6 ± 10.4 OD = mm^2
Decrease of NGF levels ([6]; compared to the micronized PEA): much more marked decrease
Expression of protein TNF-alpha ([7]; listed as Ultra-micronized PEA): 75.6 ± 12.3 OD = mm^2
Number of tissue mast cells, percent of vehicle [7, 16]: 41%
Particle size <0.6 microns [11]: 2.0%
Particle size <1 microns [11]: 14.7%
Particle size <2 microns [11]: 59.6%
Particle size <6 microns [11]: 99.9%
Particle size <10 microns [11]: 100%
Particle size >14 microns [11]: Absent
Effect on the levels of the biological parameters considered ([8]; listed as ultra-micronized PEA): high decrease
Hippocampal levels of NO2 ([8]; listed as ultra-micronized PEA): 3.1 ± 0.6 μM/μg of proteins from hippocampal homogeneate
Hippocampal tissue levels of IL-1 beta (with immunofluorescence method) (count of cells immunopositive to THE-1 beta) ([8]; listed as ultra-micronized PEA): 21.8 ± 5.4
Concentration in serum, 2AG [9, 15]: 1.0 pmol/mL
Concentration in serum, 2AG ([9]; Time 1 h, 15 mg/kg): 3.6 pmol/mL
Concentration in serum, 2AG ([9]; Time 2 h, 15 mg/kg): 4.2 pmol/mL
Concentration in serum, 2AG ([9]; Time 3 h, 15 mg/kg): 4.7 pmol/mL
Increase of 2-AG in blood compared to the basal levels [9]: higher than 400%
